Entries after “also recorded” stand apart in the source; their conditions may differ. Like-named read-outs stand apart in the source and are kept apart here.
Columns and labels:
[1] = system: C57BL/6 mice having alopecia caused by cyclophosphamide; test: Visual observation of skin in animal model having alopecia caused by cyclophosphamide; format: in vivo
Description: In 9-week-old C57BL/6 mice, the hair on the dorsal skin area was first removed with an animal hair clipper, and then a depilatory ([…] cream, manufactured by Ildong Pharmaceutical Co., Ltd.) was applied to the dorsal skin to completely remove the hair.

NQO1 knockout mice [2] = conditions: day 18
Method: The day, on which the NQO1 knockout mice were hair-removed according to Example 1, was set as day 0, and the animals were divided into the following experimental groups and used for experiments: normal group (Control, 4 animals) in which only PBS is intraperitoneally injected on day 9; cyclophosphamide group (CYP, 6 animals) in which cyclophosphamide (150 mg/kg) is intraperitoneally injected on day 9; combination-treated group (CYP+Dunnione, 6 animals) in which dunnione is orally administered on a daily basis starting from 3 days prior to treatment with cyclophosphamide; and dunnione alone-treated group (Dunnione, 4 animals) in which only dunnione (20 mg/kg) is administered (FIG. 1).
The day, on which the NQO1 knockout mice were hair-removed according to Example 1, was set as day 0, and the mice in each of the experimental groups described in Example 3 were sacrificed on day 18. Subsequently, the mouse dorsal skin was dissected parallel or perpendicular to the vertebral line, and removed. The removed skin was fixed with a Bouin's solution for 12 hours, subjected to dehydration, and embedded in paraffin. Then, the resulting product was prepared into 5-μm sections. The prepared sections were subjected to hematoxylin and eosin (H&E) staining, and histological changes in the skin in each experimental group were observed.

NAD^+ = test: NAD+ and NADH concentrations and NAD+/NADH ratio in skin tissue, cyclophosphamide alopecia model; format: in vivo, mice; conditions: cyclophosphamide plus dunnione vs cyclophosphamide
Method: Specifically, in order to quantify the NAD^+ and NADH concentrations in the skin tissue obtained from the animal model prepared by the method in Example 2, the skin tissue was tested with the analysis kit (E2ND-100) of BioAssay Systems according to the instruction manual, and then the NAD^+/NADH ratio was analyzed. First, 10 mg of skin tissue was collected from the animal model. Then, 100 μl of extraction solution for NAD^+ or NADH was added to the skin tissue and homogenized. Then, the homogenized skin tissue was subjected to heat treatment at 60° C. for 5 minutes. Neutralization was performed by addition of the same volume of the extraction solution, and then centrifugation was performed at 14,000 rpm for 5 minutes to obtain the supernatant. Then, a developing reagent was added to the supernatant. The NAD^+ and NADH concentrations were determined from the absorbance measured at a wavelength of 565 nm, and the NAD^+/NADH ratio was analyzed.

Sirt1 protein = test: Expression level of Sirt1 protein in skin tissue (western blot), cyclophosphamide alopecia model; format: in vivo, mice; conditions: cyclophosphamide plus dunnione; day 18
Method: (§1) In the cyclophosphamide-induced alopecia mouse model of Example 2, expression level of Sirt1 protein and acetylation reaction of the target proteins thereof, NF-κB p65 and p53, were identified on the skin tissue obtained on day 18 after hair removal.
(§2) Specifically, 10 mg of the skin tissue obtained from the animal model prepared by the method in Example 2 was homogenized by addition of a lysis solution (RIPA lysis buffer). Then, centrifugation was performed at 14,000 rpm for 10 minutes. The protein concentration in the supernatant was quantified with a bovine serum albumin (BSA) standard solution. The skin tissue protein was used in an amount of 40 μg per test solution. First, the homogenized skin tissue was mixed with a sample solution (Bio-Rad, 161-0747) and inactivated at a temperature of 95° C. for 5 minutes. Thereafter, the protein was separated by a sodium dodecyl sulfate-polyacrylamide gel electrophoresis (SDS-PAGE) method, and then transferred to a nitrocellulose membrane. Treatment with anti-Sirt1 antibody (Abcam), anti-acetyl NF-κB p65 antibody and anti-acetyl p53 antibody (Cell Signaling Technologies), and anti-β-actin antibody (Santa Cruz Biotechnology) as primary antibodies were performed, and reaction was allowed to proceed. […]

NF-κB p65 = test: Acetylation of NF-κB p65 in skin tissue (western blot), cyclophosphamide alopecia model; format: in vivo, mice; conditions: cyclophosphamide plus dunnione; day 18
Method: as §1, §2

[3] = system: C57BL/6 mice having alopecia caused by docetaxel, adriamycin, and cyclophosphamide; test: Visual observation of skin in animal model having alopecia caused by 6×TAC; format: in vivo
Description: In 9-week-old C57BL/6 mice, the hair on the dorsal skin area was first removed with an animal hair clipper, and then a depilatory (Niclean cream, manufactured by Ildong Pharmaceutical Co., Ltd.) was applied to the dorsal skin to completely remove the hair.
Docetaxel (DTX), adriamycin (ADR), and cyclophosphamide (CYP) were used as anticancer drugs, and combined administration of the three anticancer drugs was designated as TAC. In addition, information was obtained from the National Comprehensive Cancer Network (NCCN) for the single concentration (designated as 1× concentration) of each anticancer drug which is actually clinically applied to cancer patients. As described below, for the experimental group to be treated with anti-cancer drugs, the mice were treated with docetaxel, adriamycin, and cyclophosphamide at 6× concentration (11.58 mg/kg, 9.24 mg/kg, and 76.8 mg/kg, respectively). When treatment with the anticancer drugs is performed, the anticancer drugs were injected intraperitoneally at time intervals of 1 hour so that each of the anticancer drugs can be sufficiently absorbed.

[4] = system: C57BL/6 mice having alopecia caused by docetaxel, adriamycin, and cyclophosphamide; test: Histological changes in skin (H&E) in animal model having alopecia caused by 6×TAC; format: in vivo; conditions: day 18
Method: The day, on which the mice were hair-removed in Example 1, was set as day 0, and the mice in each of the experimental groups described in Example 4 were sacrificed on day 18. Subsequently, the mouse dorsal skin was dissected parallel or perpendicular to the vertebral line, and removed. The removed skin was fixed with a Bouin's solution for 12 hours, subjected to dehydration, and embedded in paraffin. Then, the resulting product was prepared into 5-μm sections. The prepared sections were subjected to hematoxylin and eosin (H&E) staining, and histological changes in the skin in each experimental group were observed.

NQO1 knockout mice [5] = test: Histological changes in skin (H&E) in NQO1 knockout mice treated with 6×TAC; format: in vivo; conditions: day 18
Method: The day, on which the NQO1 knockout mice were hair-removed according to Example 1, was set as day 0, and the mice in each of the experimental groups described in Example 5 were sacrificed on day 18. Subsequently, the mouse dorsal skin was dissected parallel or perpendicular to the vertebral line, and removed. The removed skin was fixed with a Bouin's solution for 12 hours, subjected to dehydration, and embedded in paraffin. Then, the resulting product was prepared into 5-μm sections. The prepared sections were subjected to hematoxylin and eosin (H&E) staining, and histological changes in the skin in each experimental group were observed.

[6] = 6×TAC+Dunnione combination-treated group

## CC1OC2=C(C(=O)C(=O)c3ccccc32)C1(C)C (stereo not drawn) [dunnione, 2,3-dihydro-2,3,3-trimethyl-naphtho[1,2-b]furan-4,5-dione]
[1]; CYP+Dunnione combination-treated group, day 18 after hair removal
  hair growth, visual observation of skin: hair grew overall so that the skin is full of hair and looks black
[1]; CYP+Dunnione: cyclophosphamide 150 mg/kg i.p. day 9, dunnione oral daily from 3 days prior, day 14 after hair removal
  hair growth, visual observation of skin: began to grow more hair than the cyclophosphamide alone-treated group
[1]; cyclophosphamide plus dunnione combination-treated group compared with cyclophosphamide alone-treated group
  hair loss: inhibited hair loss
[1]; dunnione alone (20 mg/kg), day 18 after hair removal
  hair growth, visual observation of skin: hair grew overall so that the skin is full of hair and looks black
NQO1 knockout mice [2]; CYP+Dun combination-treated group
  development of hair follicles and inner root sheaths (histology): the hair follicles have poorly developed or the inner root sheaths have insufficiently developed; also recorded: falling-off of hair follicles and inner root sheaths in the skin tissue progresses
NQO1 knockout mice [2]; dunnione alone
  development of hair follicles and inner root sheaths (histology): the hair follicles and inner root sheaths have well developed overall
NAD^+; day 18
  NAD^+/NADH ratio in skin tissue: increases
NAD^+; day 18 after hair removal
  NAD^+ concentration in skin tissue: increases
Sirt1 protein
  expression level of Sirt1 protein in skin tissue: increases; also recorded: normalizes
NF-κB p65
  acetylation of NF-κB p65 in skin tissue: suppresses
[3]; 6×TAC+Dunnione combination-treated group, day 18
  hair growth, visual observation of skin: hair grew overall so that the skin is full of hair and looks black
[3]; 6×TAC+Dunnione: 6×TAC i.p. day 9, dunnione oral daily from 3 days prior, day 14
  hair growth, visual observation of skin: began to grow more hair than the 6×TAC alone-treated group
[3]; TAC plus dunnione combination-treated group compared with TAC alone-treated group
  hair loss: inhibited hair loss
[3]; dunnione alone, day 18
  hair growth, visual observation of skin: hair grew overall so that the skin is full of hair and looks black
[4]; [6]
  development of hair follicles and inner root sheaths (histology): the hair follicles and the inner root sheaths have well developed overall; also recorded: suppressed falling-off of hair follicles and inner root sheaths
[4]; 6×TAC+Dunnione compared with 6×TAC alone-treated group
  number of growing hairs (histology): increased number of hairs
NQO1 knockout mice [5]; [6]
  development of hair follicles and inner root sheaths (histology): the hair follicles have poorly developed or the inner root sheaths have insufficiently developed; also recorded: falling-off of hair follicles and inner root sheaths in the skin tissue progresses
NQO1 knockout mice [5]; dunnione alone
  development of hair follicles and inner root sheaths (histology): the hair follicles and inner root sheaths have well developed overall

From patent US11278514B2, “Composition compromising dunnione as effective ingredient for prevention or alleviation of hair loss” (NADIANBIO LTD., priority 2018, dated 2022)
